Data reported in article PMC7070036, “An amber obligate active site-directed ligand evolution technique for phage display” (Nature Communications, 2020).
Starred links: 1 amine or outer side, 2 acyl side, 3 side chain; linkers in the order of their positions; H or OH if unused. Non-standard residues stand in square brackets, D forms with d. Residues, ends and D or L forms follow the SMILES beside them. X1 = CCCC(=S)NCCCC[C@H](N[*:1])C(=O)[*:2]

Experiments:
SIRT2 = target: T1, SIRT2 (Homo sapiens, UniProt Q8IXJ6); assay: Continuous fluorogenic sirtuin inhibition assay, SIRT2 (tBuK peptides, TB); format: biochemical
T1 sequence (Q8IXJ6 1-389): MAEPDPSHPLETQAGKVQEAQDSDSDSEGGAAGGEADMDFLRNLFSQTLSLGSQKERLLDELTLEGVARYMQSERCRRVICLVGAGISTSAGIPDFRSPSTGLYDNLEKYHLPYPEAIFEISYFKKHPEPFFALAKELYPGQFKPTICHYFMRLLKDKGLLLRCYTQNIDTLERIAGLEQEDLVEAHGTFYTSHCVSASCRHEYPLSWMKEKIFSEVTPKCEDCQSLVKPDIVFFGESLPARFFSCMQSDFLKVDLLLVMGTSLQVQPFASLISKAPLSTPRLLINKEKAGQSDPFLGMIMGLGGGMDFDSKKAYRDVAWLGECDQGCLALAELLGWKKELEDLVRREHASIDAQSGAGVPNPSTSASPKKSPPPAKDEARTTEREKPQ
Procedure: (§1) The continuous assay for comparing isoform specificity of S2P04 was performed using the universal fluorogenic sirtuin substrate described by Schuster et al.[41]. Briefly, the inhibition reactions were performed in 50-µL volumes at 37 °C in black, half-area, 96-well plates. The sirtuin enzyme (0.25 µM) was preincubated with different concentrations of the peptide S2P04 (0.0064–50 µM for SIRT1 and SIRT2, 0.5–100 µM for SIRT3) or TB (0.16–150 µM for SIRT1–SIRT3), and 1 mM NAD^+ in assay buffer (20 mM Tris, pH 7.8, 150 mM NaCl, 5 mM MgCl2, and 1 mM DTT) for 15 min. Following incubation, the reaction started with the addition of the fluorogenic substrate (5 µM), and product formation was monitored by measuring the fluorescence intensity every 20 s for 5 min (SIRT2) or 30 min (SIRT1 and SIRT3) in a BioTek Synergy H1 microplate reader at λex = 320 nm and λem = 408 nm (gain = 130 and read height = 7 mm). Initial rates of product formation were determined by a linear regression of the plot of fluorescence intensity vs. time and normalized relative to 0% (max inhibitor) and 100% (no inhibitor) controls. The assay was repeated to determine the IC50 values of all BuK peptides for SIRT2. IC50 values were determined by nonlinear regression of the plot of the normalized initial rate vs. inhibitor concentration using GraphPad Prism. The determined IC50 values are provided in Supplementary Table 2, and inhibition curves can be seen in Supplementary Fig. 20.

SIRT1 = target: T2, SIRT1 (Homo sapiens, UniProt Q96EB6); assay: Continuous fluorogenic sirtuin inhibition assay, SIRT1; format: biochemical
T2 sequence (Q96EB6 1-747): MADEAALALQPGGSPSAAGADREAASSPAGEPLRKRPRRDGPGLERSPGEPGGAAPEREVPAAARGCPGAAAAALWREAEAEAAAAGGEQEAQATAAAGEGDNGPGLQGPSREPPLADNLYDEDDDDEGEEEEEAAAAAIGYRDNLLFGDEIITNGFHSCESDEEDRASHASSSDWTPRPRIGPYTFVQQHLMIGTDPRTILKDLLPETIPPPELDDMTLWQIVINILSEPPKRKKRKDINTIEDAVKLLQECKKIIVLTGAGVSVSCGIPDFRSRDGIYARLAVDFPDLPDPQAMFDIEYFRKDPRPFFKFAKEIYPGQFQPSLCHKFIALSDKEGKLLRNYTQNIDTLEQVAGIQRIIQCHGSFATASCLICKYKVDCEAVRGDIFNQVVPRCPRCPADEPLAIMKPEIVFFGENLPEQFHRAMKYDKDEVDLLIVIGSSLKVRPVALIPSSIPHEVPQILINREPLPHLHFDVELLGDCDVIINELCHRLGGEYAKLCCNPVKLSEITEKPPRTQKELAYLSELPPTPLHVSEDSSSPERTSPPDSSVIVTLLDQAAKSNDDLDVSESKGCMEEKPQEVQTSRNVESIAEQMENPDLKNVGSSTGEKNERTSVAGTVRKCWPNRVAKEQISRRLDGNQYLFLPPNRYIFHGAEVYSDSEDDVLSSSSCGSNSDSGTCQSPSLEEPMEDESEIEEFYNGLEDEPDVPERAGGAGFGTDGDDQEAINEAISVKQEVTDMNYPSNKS
Procedure: as §1

SIRT3 = target: T3, SIRT3 (Homo sapiens, UniProt Q9NTG7); assay: Continuous fluorogenic sirtuin inhibition assay, SIRT3; format: biochemical
T3 sequence (Q9NTG7 1-399): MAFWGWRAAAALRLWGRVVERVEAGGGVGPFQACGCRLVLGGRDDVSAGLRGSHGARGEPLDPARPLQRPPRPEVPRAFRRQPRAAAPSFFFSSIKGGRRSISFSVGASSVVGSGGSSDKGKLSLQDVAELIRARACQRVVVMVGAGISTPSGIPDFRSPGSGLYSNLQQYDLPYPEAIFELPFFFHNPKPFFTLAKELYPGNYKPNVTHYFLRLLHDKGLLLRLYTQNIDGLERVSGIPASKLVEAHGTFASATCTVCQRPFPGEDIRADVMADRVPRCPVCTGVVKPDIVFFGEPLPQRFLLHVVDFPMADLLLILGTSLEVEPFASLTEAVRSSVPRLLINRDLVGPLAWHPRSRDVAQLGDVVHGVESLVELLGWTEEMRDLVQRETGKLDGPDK
Procedure: as §1

[1] = test system: amber-obligate phagemid library; assay: Phage yield on expression of the amber-obligate phagemid library with ncAAs (cfu assay); parameters: species or system E. coli Top10; conditions: BuKRS
[2] = mean ± SD of two independent experiments

With CCCC(=S)NCCCC[C@H](NC(=O)[C@@H](NC(=O)[C@@H](NC(=O)[C@H](CS)NC(=O)[C@@H](N)[C@@H](C)O)[C@@H](C)O)C(C)C)C(=O)N[C@H](C(=O)NCC(N)=O)[C@@H](C)CC [S2P04-tBuK] (H-TCTV[X1]IG-NH2) the remaining activity at 0.0064 µM (SIRT2; inhibitor 0.0064 µM, read-out: Normalized Activity, SIRT2) was 94.8%, the activity at 0.0064 µM (SIRT2; inhibitor 0.0064 µM, single trials) was 85.9% and the “%Activity, SIRT2” value (SIRT2; inhibitor 0.0064 µM, single trials, 0.0064 µM) was 94.59%. For the same molecule, the remaining activity at 0.032 µM (SIRT2; inhibitor 0.032 µM, read-out: Normalized Activity, SIRT2) was 85.2%, the activity at 0.032 µM (SIRT2; inhibitor 0.032 µM, single trials) was 77.2% and the “%Activity, SIRT2” value (SIRT2; inhibitor 0.032 µM, single trials, 0.032 µM) was 83.831%. For the same molecule, the remaining activity at 0.5 µM (SIRT2; inhibitor 0.5 µM, read-out: Normalized Activity, SIRT2) was 5.68%, the activity at 0.5 µM (SIRT2; inhibitor 0.5 µM, single trials) was 5.65% and the “%Activity, SIRT2” value (SIRT2; inhibitor 0.5 µM, single trials, 0.5 µM) was 6.5384%. The remaining activity at 1 µM (SIRT2; inhibitor 1 µM, read-out: Normalized Activity, SIRT2) was 3.34%, the activity at 1 µM (SIRT2; inhibitor 1 µM, single trials) was 3.54% and the “%Activity, SIRT2” value (SIRT2; inhibitor 1 µM, single trials, 1 µM) was 4.6849%. For the same molecule, the remaining activity at 2 µM (SIRT2; inhibitor 2 µM, read-out: Normalized Activity, SIRT2) was 3.21%, the activity at 2 µM (SIRT2; inhibitor 2 µM, single trials) was 3.42% and the “%Activity, SIRT2” value (SIRT2; inhibitor 2 µM, single trials, 2 µM) was 4.4288%. For the same molecule, the remaining activity at 4 µM (SIRT2; inhibitor 4 µM, read-out: Normalized Activity, SIRT2) was 2.33%, the activity at 4 µM (SIRT2; inhibitor 4 µM, single trials) was 2.63% and the “%Activity, SIRT2” value (SIRT2; inhibitor 4 µM, single trials, 4 µM) was 3.5157%. For the same molecule, the remaining activity at 50 µM (SIRT2; inhibitor 50 µM, read-out: Normalized Activity, SIRT2) was 0%, the activity at 50 µM (SIRT2; inhibitor 50 µM, single trials) was 0.535% and the “%Activity, SIRT2” value (SIRT2; inhibitor 50 µM, single trials, 50 µM) was 1.0081%. For the same molecule, the IC50 (SIRT2; mean ± SD of two independent experiments, read-out: IC50, SIRT2) was 92 ± 3 nM, the remaining activity at 0.0064 µM (SIRT1; inhibitor 0.0064 µM, read-out: Normalized Activity, SIRT1) was 92.8% and the remaining activity at 0.032 µM (SIRT1; inhibitor 0.032 µM, read-out: Normalized Activity, SIRT1) was 87.5%. The remaining activity at 0.5 µM (SIRT1; inhibitor 0.5 µM, read-out: Normalized Activity, SIRT1) was 26.2%, the remaining activity at 2 µM (SIRT1; inhibitor 2 µM, read-out: Normalized Activity, SIRT1) was 2.97% and the remaining activity at 50 µM (SIRT1; inhibitor 50 µM, read-out: Normalized Activity, SIRT1) was 0%. For the same molecule, the IC50 (SIRT1; [2]) was 250 ± 50 nM, the remaining activity at 0.5 µM (SIRT3; inhibitor 0.5 µM, read-out: Normalized Activity, SIRT3) was 98.2% and the remaining activity at 1 µM (SIRT3; inhibitor 1 µM, read-out: Normalized Activity, SIRT3) was 96.2%. For the same molecule, the remaining activity at 2 µM (SIRT3; inhibitor 2 µM, read-out: Normalized Activity, SIRT3) was 103%, the remaining activity at 4 µM (SIRT3; inhibitor 4 µM, read-out: Normalized Activity, SIRT3) was 82.4% and the remaining activity at 10 µM (SIRT3; inhibitor 10 µM, read-out: Normalized Activity, SIRT3) was 59.8%. For the same molecule, the remaining activity at 25 µM (SIRT3; inhibitor 25 µM, read-out: Normalized Activity, SIRT3) was 29.6%, the remaining activity at 50 µM (SIRT3; inhibitor 50 µM, read-out: Normalized Activity, SIRT3) was 9.72% and the remaining activity at 100 µM (SIRT3; inhibitor 100 µM, read-out: Normalized Activity, SIRT3) was 0%. For the same molecule, the IC50 (SIRT3; [2]) was 14000 ± 1000 nM.
With CCCC(=O)NCCCC[C@H](N)C(=O)O [compound 5, N ^Ɛ-butyryl-L-lysine] the “fold increase in particle yield vs no ncAA” value [1] was ~100 fold.
